Source: patent US20240228448A1 (Washington University, priority 2021, published 2024)
Where two headings read alike, the source gives them in different places.

Experiments:
S1P4 = target: T1, S1P4 (Homo sapiens, UniProt O95977); experiment: competitive S1Ps cell membrane binding assay against [32P]S1P, S1P4
T1 sequence (O95977 1-384): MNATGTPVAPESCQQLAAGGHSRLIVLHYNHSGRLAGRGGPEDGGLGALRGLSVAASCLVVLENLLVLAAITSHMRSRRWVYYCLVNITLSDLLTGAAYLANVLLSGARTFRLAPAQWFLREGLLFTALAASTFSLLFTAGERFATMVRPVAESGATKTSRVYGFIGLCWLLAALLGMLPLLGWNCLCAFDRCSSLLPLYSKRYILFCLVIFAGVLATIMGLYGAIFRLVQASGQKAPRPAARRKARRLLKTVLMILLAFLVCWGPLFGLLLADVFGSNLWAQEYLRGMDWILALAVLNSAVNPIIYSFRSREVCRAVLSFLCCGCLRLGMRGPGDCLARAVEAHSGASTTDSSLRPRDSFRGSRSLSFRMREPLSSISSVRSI

S1P2-5 = experiment: competitive S1Ps cell membrane binding assay against [32P]S1P, S1P2-5 reported together
From the text: (§1) One way to measure affinity is use of a general competition binding assay.

S1P1 = S1P1 (Homo sapiens, UniProt P21453); experiment: competitive S1Ps cell membrane binding assay against [32P]S1P, S1P1
Sequence of S1P1 (P21453 whole entry, species assumed): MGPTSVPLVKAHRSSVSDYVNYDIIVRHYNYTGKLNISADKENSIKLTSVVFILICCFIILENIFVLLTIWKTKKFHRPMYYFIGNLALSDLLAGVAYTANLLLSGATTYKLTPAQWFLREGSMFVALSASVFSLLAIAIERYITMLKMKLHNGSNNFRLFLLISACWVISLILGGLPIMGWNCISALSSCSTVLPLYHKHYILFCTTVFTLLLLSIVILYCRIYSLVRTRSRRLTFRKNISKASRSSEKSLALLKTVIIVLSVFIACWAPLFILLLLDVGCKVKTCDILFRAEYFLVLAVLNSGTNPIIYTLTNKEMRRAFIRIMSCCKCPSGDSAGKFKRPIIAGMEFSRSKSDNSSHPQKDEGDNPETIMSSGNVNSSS
From the text: as §1

S1P5 = S1P5 (Homo sapiens, UniProt Q9H228); experiment: competitive S1Ps cell membrane binding assay against [32P]S1P, S1P5; conditions: Table 5; read-out: IC50 (nM) S1P5
Sequence of S1P5 (Q9H228 whole entry, species assumed): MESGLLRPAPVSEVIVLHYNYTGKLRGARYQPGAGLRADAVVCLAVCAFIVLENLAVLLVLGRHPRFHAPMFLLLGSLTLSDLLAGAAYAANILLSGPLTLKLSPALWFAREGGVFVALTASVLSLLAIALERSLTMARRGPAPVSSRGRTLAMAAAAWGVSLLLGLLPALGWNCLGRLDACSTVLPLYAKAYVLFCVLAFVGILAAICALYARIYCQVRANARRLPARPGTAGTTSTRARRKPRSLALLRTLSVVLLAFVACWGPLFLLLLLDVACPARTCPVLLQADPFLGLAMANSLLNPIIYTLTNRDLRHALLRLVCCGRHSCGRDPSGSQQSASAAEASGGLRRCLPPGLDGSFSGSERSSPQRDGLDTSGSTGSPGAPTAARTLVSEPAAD
From the text: as §1

S1P2 = S1P2 (Homo sapiens, UniProt O95136); experiment: competitive S1Ps cell membrane binding assay against [32P]S1P, S1P2; conditions: Table 6
Sequence of S1P2 (O95136 whole entry, species assumed): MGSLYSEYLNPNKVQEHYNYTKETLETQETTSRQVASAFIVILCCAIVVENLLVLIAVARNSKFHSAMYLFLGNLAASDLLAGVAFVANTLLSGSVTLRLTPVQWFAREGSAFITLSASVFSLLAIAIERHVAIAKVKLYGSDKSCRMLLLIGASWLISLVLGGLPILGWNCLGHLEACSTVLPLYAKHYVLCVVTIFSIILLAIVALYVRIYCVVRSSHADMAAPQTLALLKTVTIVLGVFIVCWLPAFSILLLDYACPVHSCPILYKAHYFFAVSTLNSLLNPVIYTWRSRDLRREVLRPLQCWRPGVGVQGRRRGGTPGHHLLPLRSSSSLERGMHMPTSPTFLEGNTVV

S1P3 = S1P3 (Homo sapiens, UniProt Q99500); experiment: competitive S1Ps cell membrane binding assay against [32P]S1P, S1P3; conditions: Table 6
Sequence of S1P3 (Q99500 whole entry, species assumed): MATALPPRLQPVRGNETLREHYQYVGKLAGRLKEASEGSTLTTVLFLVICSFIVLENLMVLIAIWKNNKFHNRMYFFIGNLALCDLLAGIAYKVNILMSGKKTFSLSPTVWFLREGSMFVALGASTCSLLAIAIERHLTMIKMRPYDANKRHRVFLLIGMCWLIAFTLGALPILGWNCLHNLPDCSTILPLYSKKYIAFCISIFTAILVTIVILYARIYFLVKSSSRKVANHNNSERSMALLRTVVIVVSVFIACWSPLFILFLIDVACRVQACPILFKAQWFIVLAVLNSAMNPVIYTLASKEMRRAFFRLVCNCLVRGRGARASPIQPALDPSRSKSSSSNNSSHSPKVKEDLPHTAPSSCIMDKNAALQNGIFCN

[1] = Table 7, read-out: IC50 (nM) S1P2-5
[2] = read-out: IC50 (nM) S1P1, Table 5

## Cc1ccccc1-c1ccc(-c2nc(-c3ccc(CN(C)CCC(=O)O)c(F)c3)no2)cc1C(F)(F)F [TZ33-21]
S1P4; Table 5, read-out: IC50 (nM) S1P4
  IC50: > 1000 nM
S1P2-5; [1]
  IC50: > 1000 nM
S1P2-5; read-out: IC50 for S1P2-5
  IC50: > 1000 nM

## OCCOCc1ccc(-c2noc(-c3ccc(OCCF)c(C(F)(F)F)c3)n2)cc1 [TZ48-77]
S1P2-5; [1]
  IC50: > 1000 nM

## OCc1ccc(-c2noc(-c3ccc(OCCF)c(C(F)(F)F)c3)n2)cc1F [TZ67-138]
S1P2-5; [1]
  IC50: > 1000 nM

## FCCOc1ccc(-c2nc(-c3ccc4cc[nH]c4c3)no2)cc1C(F)(F)F [TZ73-11]
S1P1; [2]
  IC50: 34 ± 2.4 nM

## OCCn1ccc2ccc(-c3noc(-c4ccc(OCCF)c(C(F)(F)F)c4)n3)cc21 [TZ73-14]
S1P1; IC50 (nM) S1P1, Table 5
  IC50: 157 ± 24 nM

## OCCn1ccc2cc(-c3noc(-c4ccc(OCCF)c(C(F)(F)F)c4)n3)ccc21 [TZ73-15]
S1P1; IC50 (nM) S1P1, Table 5
  IC50: 57 ± 4.6 nM

## OC(c1ccc(-c2noc(-c3ccc(OCCF)c(C(F)(F)F)c3)n2)cc1)C(F)(F)F (stereo not shown) [TZ73-27]
S1P1; IC50 (nM) S1P1, Table 5
  IC50: 15 ± 2.6 nM

## CC(O)c1ccc(-c2noc(-c3ccc(OCCF)c(C(F)(F)F)c3)n2)cc1 (stereo not shown) [TZ73-28]
S1P1; IC50 (nM) S1P1, Table 5
  IC50: 21 ± 2.5 nM

## CN(C(=O)OC(C)(C)C)c1cccc(-c2noc(-c3ccc(OCCF)c(C(F)(F)F)c3)n2)c1 [TZ73-124]
S1P1; IC50 (nM) S1P1, Table 5
  IC50: > 1000 nM

## OCCOCc1ccc(-c2noc(-c3ccc(OCCF)c(C(F)(F)F)c3)n2)cc1I [TZ73-126]
S1P1; IC50 (nM) S1P1, Table 5
  IC50: 118 nM

## Cc1ccccc1-c1ccc(-c2nc(-c3ccc(COCCO)c(I)c3)no2)cc1C(F)(F)F [TZ73-127]
S1P1; IC50 (nM) S1P1, Table 5
  IC50: 66.3 nM

## Cc1ccccc1-c1ccc(-c2nc(-c3ccc(CO)c(F)c3)no2)cc1C(F)(F)F [TZ73-135]
S1P2-5; [1]
  IC50: > 1000 nM

## Cc1ccccc1-c1ccc(-c2nc(-c3ccc(CN(C)CCC(=O)O)c(I)c3)no2)cc1C(F)(F)F [TZ73-143]
S1P1; IC50 (nM) S1P1, Table 5
  IC50: 5.2 ± 2.7 nM

## OCCOCc1ccc(-c2noc(-c3ccc(OCCF)c(C(F)(F)F)c3)n2)cc1F [TZ73-144]
S1P1; IC50 (nM) S1P1, Table 5
  IC50: 17 ± 7 nM

## CN(CCC(=O)O)Cc1ccc(-c2noc(-c3ccc(OCCF)c(C(F)(F)F)c3)n2)cc1I [TZ73-147]
S1P1; [2]
  IC50: 33.1 ± 11.1 nM

## Cc1ccccc1-c1ccc(-c2nc(-c3ccc(CO)cc3)no2)cc1C(F)(F)F [TZ82-1]
S1P5
  IC50: 55.6 nM
S1P1; IC50 (nM) S1P1, Table 5
  IC50: 4.6 nM

## Cc1ccccc1-c1ccc(-c2nc(-c3ccc(CCCCO)cc3)no2)cc1C(F)(F)F [TZ82-2]
S1P5
  IC50: 764 nM
S1P1; IC50 (nM) S1P1, Table 5
  IC50: 9.8 nM

## Cc1ccccc1-c1ccc(-c2nc(-c3ccc(COCCO)c(F)c3)no2)cc1C(F)(F)F [TZ82-3]
S1P2-5; [1]
  IC50: > 1000 nM

## Cc1ccccc1-c1ccc(-c2nc(-c3cccc4[nH]ccc34)no2)cc1C(F)(F)F [TZ82-4]
S1P5
  IC50: 28.4 nM
S1P1; IC50 (nM) S1P1, Table 5
  IC50: 1.1 ± 0.1 nM

## CN(CCC(=O)O)Cc1ccc(-c2noc(-c3ccc(OCCF)c(C(F)(F)F)c3)n2)cc1F [TZ82-24]
S1P2
  IC50: > 1000 nM
S1P3
  IC50: > 1000 nM
S1P4; Table 6, read-out: IC50 for S1P4
  IC50: > 1000 nM

## Cc1ccccc1-c1ccc(-c2nc(-c3ccc(CO)c(F)c3)no2)cc1C(F)F [TZ82-26]
S1P5
  IC50: 85.2 nM
S1P1; IC50 (nM) S1P1, Table 5
  IC50: 2.9 nM

## Cc1ccccc1-c1ccc(-c2nc(-c3ccc(COCCCCCO)c(F)c3)no2)cc1C(F)(F)F [TZ82-29]
S1P1; IC50 (nM) S1P1, Table 5
  IC50: 4.9 nM
S1P1; IC50 (nM) S1P1, Table 7
  IC50: 16.1 ± 0.3 nM
S1P2-5; [1]
  IC50: > 1000 nM

## FCCOc1ccc(-c2nc(-c3cccc4[nH]ccc34)no2)cc1C(F)(F)F [TZ82-34]
S1P2-5; [1]
  IC50: > 1000 nM

## FCCOc1ccc(-c2nc(-c3cccc4cc[nH]c34)no2)cc1C(F)(F)F [TZ82-35]
S1P1; [2]
  IC50: 98 ± 26 nM

## FCCOc1ccc(-c2nc(-c3ccc4[nH]cnc4c3)no2)cc1C(F)(F)F [TZ82-36]
S1P1; IC50 (nM) S1P1, Table 5
  IC50: 57 ± 7.6 nM

## OCc1nc2cc(-c3noc(-c4ccc(OCCF)c(C(F)(F)F)c4)n3)ccc2[nH]1 [TZ82-37]
S1P1; IC50 (nM) S1P1, Table 5
  IC50: 28 ± 5.8 nM

## CC(C)(C)OC(=O)Nc1cccc(-c2noc(-c3ccc(OCCF)c(C(F)(F)F)c3)n2)c1 [TZ82-40]
S1P1; IC50 (nM) S1P1, Table 5
  IC50: > 1000 nM
